The values that follow come from PubChem BioAssay AID1745844 (Carcinogenic Potency Database (CPDB), 2022).

The data set deals with rodent lifetime carcinogenesis bioassay, tumor incidence TD50. The data set can be described thus: carcinogenic potency in animals, long-term in vivo studies, CPDB compilation (AID 1745844).

Activity calls are given as the source filed them. The rule behind the calls is not given here.

`CNC(=O)c1c(N(C)N=O)ncn1C`: the TD50 (as a rule, the 50% point of the dose-response relation for the toxic effect studied) is 1.03 mg/kg/day (rat, strain BD IX, both sexes, in drinking water, site: nasal cavity, olfactory epithelium, lesion: neuroepithelioma, dosed 73 weeks, study length 79 weeks); 1 mg/kg/day (rat, strain BD IX, both sexes, in drinking water, site: nasal cavity, lesion: several types, types named in the paper, dosed 73 weeks, study length 79 weeks); 5.56 mg/kg/day (rat, strain BD IX, both sexes, in drinking water, site: nasal cavity, lesion: squamous-cell carcinoma, dosed 73 weeks, study length 79 weeks).

For the compound `C=C/C1=C/C(C)C(C)(OC(C)=O)C(=O)OCC2=CC[N+]3(C)CCC(OC1=O)C23O` (configuration not stated), the TD50 is 3.01 mg/kg/day (rat, strain ACI, both sexes, in drinking water, site: liver, lesion: hemangioendothelial sarcoma, dosed 48 weeks, study length 68 weeks); 0.697 mg/kg/day (rat, strain ACI, both sexes, in drinking water, site: liver, lesion: neoplastic nodule, dosed 48 weeks, study length 68 weeks); 0.5 mg/kg/day (rat, strain ACI, both sexes, in drinking water, site: liver, lesion: several types, types named in the paper, dosed 48 weeks, study length 68 weeks).

`CC(C)(Oc1ccc(C2CCCc3ccccc32)cc1)C(=O)O` (configuration not stated): the carcinogen call (hamster, strain Syrian, MB strain, males, in feed, site: liver, lesion: several types, types named in the paper, dosed 60 weeks, study length 60 weeks) was “negative (inactive)”. The TD50 (rat, strain Fischer 344, males, in feed, site: liver, lesion: hepatocellular carcinoma, dosed 108 weeks, study length 108 weeks) is 22.4 mg/kg/day; the TD50 (rat, strain Fischer 344, males, in feed, site: pancreas, lesion: acinar-cell adenoma, dosed 108 weeks, study length 108 weeks) turned out to be 207 mg/kg/day; the TD50 (rat, strain Fischer 344, males, in feed, site: pancreas, lesion: acinar-cell carcinoma, dosed 108 weeks, study length 108 weeks) was found to be 428 mg/kg/day; the TD50 (rat, strain Fischer 344, males, in feed, site: pancreas, lesion: several types, types named in the paper, dosed 108 weeks, study length 108 weeks) is 132 mg/kg/day; the TD50 (rat, strain Sprague-Dawley, males, in feed, site: liver, lesion: several types, types named in the paper, dosed 60 weeks, study length 60 weeks) is 3.51 mg/kg/day; the TD50 (rat, strain Wistar, females, in feed, site: liver, lesion: hepatocellular adenoma, dosed 70 weeks, study length 70 weeks) was 55.5 mg/kg/day. In addition, the TD50 (rat, strain Wistar, females, in feed, site: liver, lesion: hepatocellular carcinoma, dosed 55 weeks, study length 55 weeks) was 163 mg/kg/day; the TD50 (rat, strain Wistar, females, in feed, site: liver, lesion: hepatocellular carcinoma, dosed 70 weeks, study length 70 weeks) was 92.3 mg/kg/day; the TD50 (rat, strain Wistar, females, in feed, site: liver, lesion: several types, types named in the paper, dosed 55 weeks, study length 55 weeks) came out at 163 mg/kg/day; the TD50 (rat, strain Wistar, females, in feed, site: liver, lesion: several types, types named in the paper, dosed 70 weeks, study length 70 weeks) was 36.6 mg/kg/day; the TD50 (rat, strain Wistar, males, in feed, site: any site (literature study), lesion: one or several types, types not named, dosed 59 weeks, study length 59 weeks) stood at 12.3 mg/kg/day; the TD50 (rat, strain Wistar, males, in feed, site: liver, lesion: hepatocellular adenoma, dosed 57 weeks, study length 57 weeks) is 38.8 mg/kg/day. The TD50 by setting is: (rat, strain Wistar, males, in feed, site: liver, lesion: hepatocellular adenoma, dosed 59 weeks, study length 59 weeks) 48 mg/kg/day; (rat, strain Wistar, males, in feed, site: liver, lesion: hepatocellular carcinoma, dosed 57 weeks, study length 57 weeks) 59.1 mg/kg/day; (rat, strain Wistar, males, in feed, site: liver, lesion: hepatocellular carcinoma, dosed 59 weeks, study length 59 weeks) 58.1 mg/kg/day; (rat, strain Wistar, males, in feed, site: liver, lesion: several types, types named in the paper, dosed 57 weeks, study length 57 weeks) 19.8 mg/kg/day; (rat, strain Wistar, males, in feed, site: liver, lesion: several types, types named in the paper, dosed 59 weeks, study length 59 weeks) 22.1 mg/kg/day.

Take `C[C@]12CCC(=O)C=C1CC[C@@H]1[C@@H]2[C@@H](O)C[C@@]2(C)[C@H]1CC[C@]2(O)C(=O)CO`: the carcinogen call by setting is: (rat, strain Sprague-Dawley, females, by gavage, site: any site (literature study), lesion: malignant tumor, dosed 110 weeks, study length 110 weeks) “negative (inactive)”; (rat, strain Sprague-Dawley, males, by gavage, site: any site (literature study), lesion: malignant tumor, dosed 104 weeks, study length 104 weeks) “negative (inactive)”.

As for `C1CCCNCCC1`, the TD50 (rat, strain MRC, females, in drinking water, site: any site (literature study), lesion: several types, types named in the paper, dosed 75 weeks, study length 104 weeks) turned out to be 15.8 mg/kg/day and the TD50 (rat, strain MRC, males, in drinking water, site: any site (literature study), lesion: several types, types named in the paper, dosed 75 weeks, study length 104 weeks) amounted to 6.37 mg/kg/day.

As for `S=C(SN1CCOCC1)N1CCOCC1`, the TD50 by setting is: (rat, strain Sprague-Dawley, females, in feed, site: kidney, lesion: several types, types named in the paper, dosed 112 weeks, study length 112 weeks) 338 mg/kg/day; (rat, strain Sprague-Dawley, females, in feed, site: kidney, lesion: squamous-cell carcinoma, dosed 112 weeks, study length 112 weeks) 571 mg/kg/day; (rat, strain Sprague-Dawley, females, in feed, site: kidney, lesion: urothelial carcinoma, dosed 112 weeks, study length 112 weeks) 571 mg/kg/day; (rat, strain Sprague-Dawley, females, in feed, site: kidney, lesion: urothelial papilloma, dosed 112 weeks, study length 112 weeks) 1740 mg/kg/day; (rat, strain Sprague-Dawley, females, in feed, site: urinary bladder, lesion: several types, types named in the paper, dosed 112 weeks, study length 112 weeks) 206 mg/kg/day; (rat, strain Sprague-Dawley, females, in feed, site: urinary bladder, lesion: squamous-cell carcinoma, dosed 112 weeks, study length 112 weeks) 1740 mg/kg/day. Also, the TD50 is 862 mg/kg/day (rat, strain Sprague-Dawley, females, in feed, site: urinary bladder, lesion: squamous-cell papilloma, dosed 112 weeks, study length 112 weeks); 862 mg/kg/day (rat, strain Sprague-Dawley, females, in feed, site: urinary bladder, lesion: urothelial carcinoma, dosed 112 weeks, study length 112 weeks); 571 mg/kg/day (rat, strain Sprague-Dawley, females, in feed, site: urinary bladder, lesion: urothelial papilloma, dosed 112 weeks, study length 112 weeks); 96.9 mg/kg/day (rat, strain Sprague-Dawley, females, in feed, site: urinary tract, lesion: several types, types named in the paper, dosed 112 weeks, study length 112 weeks); 528 mg/kg/day (rat, strain Sprague-Dawley, males, in feed, site: kidney, lesion: several types, types named in the paper, dosed 112 weeks, study length 112 weeks); 1390 mg/kg/day (rat, strain Sprague-Dawley, males, in feed, site: kidney, lesion: squamous-cell carcinoma, dosed 112 weeks, study length 112 weeks). Further, the TD50 was 690 mg/kg/day (rat, strain Sprague-Dawley, males, in feed, site: kidney, lesion: urothelial carcinoma, dosed 112 weeks, study length 112 weeks); 130 mg/kg/day (rat, strain Sprague-Dawley, males, in feed, site: urinary bladder, lesion: several types, types named in the paper, dosed 112 weeks, study length 112 weeks); 690 mg/kg/day (rat, strain Sprague-Dawley, males, in feed, site: urinary bladder, lesion: squamous-cell carcinoma, dosed 112 weeks, study length 112 weeks); 1390 mg/kg/day (rat, strain Sprague-Dawley, males, in feed, site: urinary bladder, lesion: squamous-cell papilloma, dosed 112 weeks, study length 112 weeks); 340 mg/kg/day (rat, strain Sprague-Dawley, males, in feed, site: urinary bladder, lesion: urothelial carcinoma, dosed 112 weeks, study length 112 weeks); 457 mg/kg/day (rat, strain Sprague-Dawley, males, in feed, site: urinary bladder, lesion: urothelial papilloma, dosed 112 weeks, study length 112 weeks). Moreover, the TD50 (rat, strain Sprague-Dawley, males, in feed, site: urinary tract, lesion: several types, types named in the paper, dosed 112 weeks, study length 112 weeks) is 85.5 mg/kg/day.
